Type in all cases: cell-based
Assay [1] relates to adipocytes differentiated from normal human subcutaneous preadipocytes. In words: Sugar uptake test in adipocytes (intracellular 2DG6P, Glucose Uptake-Glo). To be noted: 100 μM acadesine (AICAR), 4 hours, No addition=100%. The method, then: Normal human subcutaneous preadipocytes were precultured using the growth medium in the same manner as in Example 1. The cells were detached using 0.25% trypsin-EDTA, seeded at 10,000 cells/100 μL/well to a 96-well plate using the growth medium, and cultured overnight in a CO2 incubator. On the next day, the medium was replaced with the differentiation medium (100 μL). The cells were cultured for 10 days in a CO2 incubator to induce their differentiation into adipocytes. On the fourth and seventh days after the differentiation induction, the medium was replaced with a fresh differentiation medium (100 μL). Next, the medium was replaced with 100 μLL of a serum-free medium (PBM-2 medium supplemented with 2 mM L-glutamine, 50 μg/mL gentamycin, and 37 ng/mL amphotericin-B, Cat. No. PT-8002, Lonza Group AG), and the cells were cultured for 18 hours in a CO2 incubator. Subsequently, the medium was replaced with 100 μL of a glucose-free serum-free medium (DMEM, no glucose, Cat. No. 11966025, Thermo Fisher Scientific Inc.) supplemented with varying concentrations of steviol (10, 30 or 100 μg/mL, dissolved in 0.1% DMSO (final concentration)), and the cells were cultured for 4 hours in a CO2 incubator. A glucose-free serum-free medium supplemented with 100 μM acadesine (AICAR, Cat. No. A9978, Sigma-Aldrich Co., LLC) was used as a positive control, and a vehicle control composed of a glucose-free serum-free medium supplemented with 0.1% DMSO (final concentration) and a no-addition control composed of only a glucose-free serum-free medium were used as negative controls. After culture, intracellular 2-deoxyglucose-6-phosphate (2DG6P, 2-deoxyglucose (2DG) phosphorylation product) level was measured by the following procedures using Glucose Uptake-Glo Assay kit (Cat. No. J1341, Promega Corp.). The medium of each well was replaced with a DPBS solution (50 μL) supplemented with 1 mM 2DG. After incubation at room temperature for 10 minutes, a stop buffer (25 μL), a neutralization buffer (25 μL), and a 2DG6P detection reagent (100 μL) were added thereto. After incubation at room temperature for 60 minutes, luminescence intensity was measured using a plate reader (VARIOSKAN FLASH, Thermo Fisher Scientific Inc.), and relative luminescence intensity was regarded as a relative intracellular 2DG6P level. Significant difference among the test groups to be compared (no-addition group vs positive control group, vehicle control group vs steviol addition group) was tested by the Student's t test. The two-tailed test was conducted, and P<0.05 was regarded as having significant difference.

For assay [2] the test system is unchanged. The assay is described as follows: Lipolysis test in adipocytes (free glycerol in culture supernatant). To be noted: 10 μM isoproterenol, 24 hours, No addition=100%. The method, then:
Normal human subcutaneous preadipocytes were precultured using the growth medium in the same manner as in Example 1. The cells were detached using 0.25% trypsin-EDTA, seeded at 10,000 cells/100 μL/well to a 96-well plate using the growth medium, and cultured overnight in a CO2 incubator. On the next day, the medium was replaced with the differentiation medium (100 μL), and the cells were cultured for 10 days in a CO2 incubator to induce their differentiation into adipocytes. On the fourth and seventh days after the differentiation induction, the medium was replaced with a fresh differentiation medium (100 μL). Next, the medium was replaced with a differentiation medium supplemented with varying concentrations of steviol (10, 30 or 100 μg/mL, dissolved in 0.1% DMSO (final concentration)), and the cells were cultured for 24 hours in a CO2 incubator. Then, a free glycerol level in a culture supernatant was measured using Adipolysis Assay Kit (Cat. No. 10009381, Cayman Chemical Co.) according to the manufacturer's protocol. For the measurement, absorbance (540 nm) was measured using a plate reader (VARIOSKAN FLASH, Thermo Fisher Scientific Inc.), and a relative free glycerol concentration was calculated. A differentiation medium supplemented with 10 μM isoproterenol (ISP) was used as a positive control, and a vehicle control (DMSO) composed of a differentiation medium supplemented with 0.1% DMSO (final concentration) and a no-addition control composed of only the differentiation medium were used as negative controls. Significant difference among the test groups to be compared (no-addition group vs positive control group, vehicle control group vs steviol addition group) was tested by the Student's t test. The two-tailed test was conducted, and P<0.05 was regarded as having significant difference.

For assay [3], the system named is normal human subcutaneous preadipocytes differentiated into adipocytes. The assay is described as follows: Fat accumulation test in adipocytes (oil red staining). Conditions: 25 mM LiCl, 10 days, DMSO=100%. As to the method:
Normal human subcutaneous preadipocytes were precultured using the growth medium in the same manner as in Example 1. The cells were detached using 0.25% trypsin-EDTA, seeded at 10,000 cells/100 μL/well to a 96-well plate using a growth medium, and cultured overnight in a CO2 incubator. On the next day, the medium was replaced with 100 μL of a differentiation medium supplemented with varying concentrations of steviol (12.5, 25, 50, 100 or 200 μg/mL, dissolved in 0.1% DMSO (final concentration)). The cells were cultured for 10 days in a CO2 incubator to induce their differentiation into adipocytes. On the fourth and seventh days after the differentiation induction, the medium was replaced with a fresh medium (100 μL) having the same composition as above. A differentiation medium supplemented with 25 mM LiCl (Cat. No. SML0559, Sigma-Aldrich Co., LLC) was used as a positive control, and a differentiation medium supplemented with 0.1% DMSO (final concentration) was used as a negative control. Cells cultured in a growth medium were used as an untreated control (Untreated). The cells thus cultured were subjected to oil red staining. Specifically, the cells were washed twice with 100 μL of DPBS (Cat. No. 14190250, Thermo Fisher Scientific Inc.). Then, the cells were fixed (room temperature, 10 min) in 100 μL of a 10% formalin solution (Cat. No. 061-00416, FUJIFILM Wako Pure Chemical Corp.). The cells were washed twice with 100 μL of DPBS, then incubated for 1 minute in 100 μL of 60% 2-propanol (Cat. No. 166-04836, FUJIFILM Wako Pure Chemical Corp.) that replaced the medium, and stained for 15 minutes in 100 μL of an oil red staining solution (Cat. No. 00625, Sigma-Aldrich Co., LLC) that replaced the 2-propanol solution. The cells were washed once with 100 μL of 60% 2-propanol and washed twice with 100 μL of DPBS. Then, cell images were taken in 100 μL of DPBS. After subsequent replacement with 120 μL of 100% 2-propanol, oil red was extracted by incubation for 5 minutes, and 100 μL of the extracts was transferred to each well of a fresh 96-well plate. Absorbance (520 nm) was measured using a plate reader (VARIOSKAN FLASH, Thermo Fisher Scientific Inc.), and a relative fat accumulation level was calculated. Significant difference of differentiation non-induced group vs differentiation induced group (negative control group) was tested (two-tailed), and P<0.05 was regarded as having significant difference. Also, significant difference of negative control group vs steviol addition group/positive control group was tested (two-tailed) by the Dunnett test, and P<0.05 was regarded as having significant difference.

Assay [4] concerns HepG2 cells. The assay is described as follows: Fat accumulation test in hepatocytes (oil red staining, oleic acid). To be noted: 2 mM metformin, 0.2 mM oleic acid, 24 hours, DMSO=100%. As to the method: Normal human subcutaneous preadipocytes were precultured using the growth medium in the same manner as in Example 1. The cells were detached using 0.25% trypsin-EDTA, seeded at 10,000 cells/100 μL/well to a 96-well plate using a growth medium, and cultured overnight in a CO2 incubator. On the next day, the medium was replaced with 100 μL of a differentiation medium supplemented with varying concentrations of steviol (12.5, 25, 50, 100 or 200 μg/mL, dissolved in 0.1% DMSO (final concentration)). The cells were cultured for 10 days in a CO2 incubator to induce their differentiation into adipocytes. On the fourth and seventh days after the differentiation induction, the medium was replaced with a fresh medium (100 μL) having the same composition as above. A differentiation medium supplemented with 25 mM LiCl (Cat. No. SML0559, Sigma-Aldrich Co., LLC) was used as a positive control, and a differentiation medium supplemented with 0.1% DMSO (final concentration) was used as a negative control. Cells cultured in a growth medium were used as an untreated control (Untreated). The cells thus cultured were subjected to oil red staining. Specifically, the cells were washed twice with 100 μL of DPBS (Cat. No. 14190250, Thermo Fisher Scientific Inc.). Then, the cells were fixed (room temperature, 10 min) in 100 μL of a 10% formalin solution (Cat. No. 061-00416, FUJIFILM Wako Pure Chemical Corp.). The cells were washed twice with 100 μL of DPBS, then incubated for 1 minute in 100 μL of 60% 2-propanol (Cat. No. 166-04836, FUJIFILM Wako Pure Chemical Corp.) that replaced the medium, and stained for 15 minutes in 100 μL of an oil red staining solution (Cat. No. 00625, Sigma-Aldrich Co., LLC) that replaced the 2-propanol solution. The cells were washed once with 100 μL of 60% 2-propanol and washed twice with 100 μL of DPBS. Then, cell images were taken in 100 μL of DPBS. After subsequent replacement with 120 μL of 100% 2-propanol, oil red was extracted by incubation for 5 minutes, and 100 μL of the extracts was transferred to each well of a fresh 96-well plate. Absorbance (520 nm) was measured using a plate reader (VARIOSKAN FLASH, Thermo Fisher Scientific Inc.), and a relative fat accumulation level was calculated. Significant difference of differentiation non-induced group vs differentiation induced group (negative control group) was tested (two-tailed), and P<0.05 was regarded as having significant difference. Also, significant difference of negative control group vs steviol addition group/positive control group was tested (two-tailed) by the Dunnett test, and P<0.05 was regarded as having significant difference. […] HepG2 cells were precultured using the growth medium in the same manner as in Example 5. The cells were detached using 0.25% trypsin-EDTA, seeded at 30,000 cells/100 μL/well to a 96-well plate using the growth medium, and cultured overnight in a CO2 incubator. On the next day, the medium was replaced with 100 μL of a test medium (DMEM (high glucose) supplemented with 0.2 mM oleic acid (Cat. No. 03008, Sigma-Aldrich), 10% FBS and 1% penicillin-streptomycin) supplemented with varying concentrations of steviol (12.5, 25, 50, 100 or 200 μg/mL, dissolved in 0.1% DMSO (final concentration)). The cells were cultured for 24 hours in a CO2 incubator. A test medium supplemented with 2 mM metformin (Cat. No. M2009, Tokyo Chemical Industry Co., Ltd.) was used as a positive control (Metformin), and a vehicle control composed of a test medium supplemented with 0.1% DMSO (final concentration) was used as a negative control (DMSO). Cells cultured in a test medium containing no oleic acid was used as an untreated control (Untreated). The cells thus cultured were subjected to oil red staining in the same manner as in Example 3, followed by photographing and calculation of a relative fat accumulation level. […]

Assay [5] deals with HepG2 cells. The assay is described as follows: TG accumulation test in hepatocytes (Adipogenesis Assay Kit, oleic acid). Conditions: 2 mM metformin, 0.2 mM oleic acid, 24 hours, DMSO=100%. The method, then:
HepG2 cells were precultured using the growth medium in the same manner as in Example 5. The cells were detached using 0.25% trypsin-EDTA, seeded at 30,000 cells/100 μL/well to a 96-well plate using the growth medium, and cultured overnight in a CO2 incubator. On the next day, the medium was replaced with 100 μL of a test medium (DMEM (high glucose) supplemented with 0.2 mM oleic acid (Cat. No. 03008, Sigma-Aldrich), 10% FBS and 1% penicillin-streptomycin) supplemented with varying concentrations of steviol (12.5, 25, 50, 100 or 200 μg/mL, dissolved in 0.1% DMSO (final concentration)). The cells were cultured for 24 hours in a CO2 incubator. A test medium supplemented with 2 mM metformin (Cat. No. M2009, Tokyo Chemical Industry Co., Ltd.) was used as a positive control (Metformin), and a vehicle control composed of a test medium supplemented with 0.1% DMSO (final concentration) was used as a negative control (DMSO). Cells cultured in a test medium containing no oleic acid was used as an untreated control (Untreated). The cells thus cultured were subjected to oil red staining in the same manner as in Example 3, followed by photographing and calculation of a relative fat accumulation level. An intracellular triglyceride (TG) level in cells separately cultured under the same conditions as in the cells employed in the oil red staining was quantified using Adipogenesis Assay Kit (BioVision Inc.) according to the manufacturer's protocol. Absorbance (570 nm) was measured using a plate reader (VARIOSKAN FLASH, Thermo Fisher Scientific Inc.), and a relative TG level was calculated. Significant difference of untreated group vs fat accumulation induction group (negative control group) was tested (two-tailed) by the Student's t test as to the relative fat accumulation level and the relative TG level, and P<0.05 was regarded as having significant difference. Also, significant difference of negative control group vs steviol addition group/positive control group was tested (two-tailed) by the Dunnett test, and P<0.05 was regarded as having significant difference. The results of the fat accumulation test are shown in Table 6 and FIG. 6, and the results of the TG accumulation test are shown in Table 7 and FIG. 7.

With `NC(=O)c1ncn([C@@H]2O[C@H](CO)[C@@H](O)[C@H]2O)c1N` [AICAR, acadesine, reference compound], in assay [1], the “Relative luminescence intensity (%) (relative intracellular 2DG6P level)” value was 194.9%.

`CC(C)NCC(O)c1ccc(O)c(O)c1` (centres unmarked) [ISP, isoproterenol, reference compound]: the “Relative lipolysis level (%)” value in assay [2] is on record as 184.4%.

Consider `[Cl-].[Li+]` [LiCl, reference compound], for which the “Relative fat accumulation level (%)” value in assay [3] stood at 56.3%. `CN(C)C(=N)N=C(N)N` [Metformin, metformin, reference compound]: in the assay on HepG2 cells [4], the “Relative fat accumulation level (%)” value was found to be 79.4%. Moreover, the “Relative TG level (%)” value in the assay on HepG2 cells [5] was 76.0%.

These data come from patent publication US20230057359A1, “NOVEL USE OF STEVIOL” (SUNTORY HOLDINGS LIMITED, priority 2019, published 2023).
